Test results: BindingDB's records for doi:10.1021/np970376z (Aoyama Gakuin University, 1998)

These compounds were tested against Prothrombin (Homo sapiens, UniProt P00734) (assay: Inhibition of thrombin).

IC50 | Structure (SMILES)
> 136 µM | C/C(=C\Cc1cc(O)ccc1O)CCC[C@@H](C)[C@@H](C[C@@H]1CCC[C@H]2C(C)(C)CCC[C@@]12C)OS(=O)(=O)O
47.7 µM | CC1(C)CCC[C@H]2[C@H]1CC[C@@]1(C)[C@@H]2CC/C(=C\OS(=O)(=O)O)[C@@H]1CCc1ccoc1 [listing 1 of 2 here]
42.7 µM | CC1(C)CCC[C@H]2[C@H]1CC[C@@]1(C)[C@@H]2CC/C(=C\OS(=O)(=O)O)[C@@H]1CCc1ccoc1 [listing 2 of 2 here]
